Measured values from patent publication US20250084078A1, “FUSED RING-SUBSTITUTED SIX-MEMBERED HETEROCYCLIC COMPOUND, AND PREPARATION METHOD THEREFOR AND USE THEREOF” (GENFLEFT THERAPEUTICS (SHANGHAI) INC., priority 2022, published 2025).
pIC50: −log10 of the molar value.

Target: HPK1 (Homo sapiens, UniProt Q92918)
Assay: SLP76 phosphorylation assay (intracellular HPK1 inhibitory activity, p-SLP76 S376 ELISA in Jurkat cells)
Details: p-SLP76 IC50, Jurkat, Clone E6-1 cells; 1 h compound pre-incubation; anti-CD3 beads stimulation 20 min; Phospho-SLP-76 (Ser376) ELISA

Chain of HPK1 (Q92918 whole entry): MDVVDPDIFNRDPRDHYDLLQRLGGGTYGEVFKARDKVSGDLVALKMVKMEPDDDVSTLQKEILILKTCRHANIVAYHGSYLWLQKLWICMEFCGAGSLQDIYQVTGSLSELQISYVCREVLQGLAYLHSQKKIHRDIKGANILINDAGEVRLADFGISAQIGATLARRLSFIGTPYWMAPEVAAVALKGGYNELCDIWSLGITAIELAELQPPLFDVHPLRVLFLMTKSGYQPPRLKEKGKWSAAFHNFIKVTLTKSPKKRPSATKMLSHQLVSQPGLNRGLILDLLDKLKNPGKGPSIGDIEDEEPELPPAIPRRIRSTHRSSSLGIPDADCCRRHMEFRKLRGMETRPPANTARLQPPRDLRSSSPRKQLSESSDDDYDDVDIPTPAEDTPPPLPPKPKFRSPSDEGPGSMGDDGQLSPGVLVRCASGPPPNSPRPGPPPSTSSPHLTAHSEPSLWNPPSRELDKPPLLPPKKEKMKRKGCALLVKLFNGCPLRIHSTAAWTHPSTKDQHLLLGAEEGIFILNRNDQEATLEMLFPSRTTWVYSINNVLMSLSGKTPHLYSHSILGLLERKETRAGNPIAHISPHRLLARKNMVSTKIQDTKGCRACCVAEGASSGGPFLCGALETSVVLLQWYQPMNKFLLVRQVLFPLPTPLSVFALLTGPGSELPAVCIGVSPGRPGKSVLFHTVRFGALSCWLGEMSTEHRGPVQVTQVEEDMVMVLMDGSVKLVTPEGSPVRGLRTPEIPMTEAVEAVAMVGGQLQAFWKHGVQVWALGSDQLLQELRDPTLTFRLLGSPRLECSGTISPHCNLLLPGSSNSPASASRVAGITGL

Row | pIC50 | Structure (SMILES)
1 | 6.81 | Cc1c[nH]c2ncc(-c3cc4c(c([C@@H]5COCCN5)c3)CN(C(=O)N3CC[C@@H](F)C3)CC4)cc12 [Compound Z486, ((R)-3-fluoropyrrolidin-1-yl)(6-(3-methyl-1H-pyrrolo[2,3-b]pyridin-5-yl)-8-((R)-morpholin-3-yl)-3,4-dihydroisoquinolin-2(1H)-yl)methanone]
2 | 6.81 | O=C(C1CCOCC1)N1CCc2c(cc(-c3cnc4[nH]cc(Cl)c4c3)cc2[C@@H]2COCCN2)C1 [Compound Z487, (R)-(7-(3-chloro-1H-pyrrolo[2,3-b]pyridin-5-yl)-5-(morpholin-3-yl)-3,4-dihydroisoquinolin-2(1H)-yl)(tetrahydro-2H-pyran-4-yl)methanone]
3 | 6.71 | Cc1c[nH]c2ncc(-c3cc4c(c([C@@H]5COCCN5)c3)CN(C3CCN(C)CC3)CC4)cc12 [Compound Z498, (R)-3-(6-(3-methyl-1H-pyrrolo[2,3-b]pyridin-5-yl)-2-(1-methylpiperidin-4-yl)-1,2,3,4-tetrahydroisoquinolin-8-yl)morpholine]
4 | 6.66 | O=S(=O)(C1CC1)N1CCc2cc(-c3cnc4[nH]cc(Cl)c4c3)cc([C@@H]3COCCN3)c2C1 [Compound Z499, (R)-3-(6-(3-chloro-1H-pyrrolo[2,3-b]pyridin-5-yl)-2-(cyclopropylsulfonyl)-1,2,3,4-tetrahydroisoquinolin-8-yl)morpholine]
5 | 6.84 | C[C@@H]1COCCN1C(=O)N1CCc2cc(-c3cnc4[nH]cc(Cl)c4c3)cc([C@@H]3COCCN3)c2C1 [Compound Z500, (6-(3-chloro-1H-pyrrolo[2,3-b]pyridin-5-yl)-8-((R)-morpholin-3-yl)-3,4-dihydroisoquinolin-2(1H)-yl)((R)-3-methylmorpholine)methanone]
6 | 6.55 | CS(=O)(=O)N1CCc2cc(-c3cnc4[nH]cc(Cl)c4c3)cc([C@@H]3COCCN3)c2C1 [Compound Z501, (R)-3-(6-(3-chloro-1H-pyrrolo[2,3-b]pyridin-5-yl)-2-(methylsulfonyl)-1,2,3,4-tetrahydroisoquinolin-8-yl)morpholine]
7 | 6.77 | C[C@@H]1CN(C(=O)N2CCc3cc(-c4cnc5[nH]cc(Cl)c5c4)cc([C@@H]4COCCN4)c3C2)CCO1 [Compound Z502, (6-(3-chloro-1H-pyrrolo[2,3-b]pyridin-5-yl)-8-((R)-morpholin-3-yl)-3,4-dihydroisoquinolin-2(1H)-yl)((R)-2-methylmorpholino)methanone]
8 | 6.77 | CC1(C)COCCN1C(=O)N1CCc2cc(-c3cnc4[nH]cc(Cl)c4c3)cc([C@@H]3COCCN3)c2C1 [Compound Z503, (R)-(6-(3-chloro-1H-pyrrolo[2,3-b]pyridin-5-yl)-8-(morpholin-3-yl)-3,4-dihydroisoquinolin-2(1H)-yl)(3,3-dimethylmorpholino)methanone]
9 | 6.63 | Cc1c[nH]c2ncc(-c3cc4c(c([C@@H]5COCCN5)c3)CN(C(=O)C3CC5CCC(C3)O5)CC4)cc12 (stereo partly drawn) [Compound Z504, (8-oxabicyclo[3.2.1]octan-3-yl)(6-(3-methyl-1H-pyrrolo[2,3-b]pyridin-5-yl)-8[(R)-morpholin-3-yl)-3,4-dihydroisoquinolin-2(1H)-yl)-methanone]
10 | 6.58 | Cc1c[nH]c2ncc(-c3cc4c(c([C@@H]5COCCN5)c3)CN(C(=O)C3(C)COC3)CC4)cc12 [Compound Z505, (R)-(6-(3-methyl-1H-pyrrolo[2,3-b]pyridin-5-yl)-8-(morpholin-3-yl)-3,4-dihydroisoquinolin-2(1H)-yl)(3-methyloxetan-3-yl)methanone]
11 | 6.16 | CC(C)(O)C(=O)N1CCc2cc(-c3cnc4[nH]cc(C#N)c4c3)cc([C@@H]3COCCN3)c2C1 [Compound Z506, (R)-5-(2-(2-hydroxy-2-methylpropanoyl)-8-(morpholin-3-yl)-1,2,3,4-tetrahydroisoquinolin-6-yl)-1H-pyrrolo[2,3-b]pyridine-3-carbonitrile]
12 | 6.52 | C=Cc1c[nH]c2ncc(-c3cc4c(c([C@@H]5COCCN5)c3)CN(C(=O)C(C)(C)O)CC4)cc12 [Compound Z508, (R)-2-hydroxy-2-methyl-1-(8-(morpholin-3-yl)-6-(3-vinyl-1H-pyrrolo[2,3-b]pyridin-5-yl)-3,4-dihydroisoquinolin-2(1H)-yl)propan-1-one]
13 | 6.55 | Cc1c(F)[nH]c2ncc(-c3cc4c(c([C@@H]5COCCN5)c3)CN(C(=O)C(C)(C)O)CC4)cc12 [Compound Z510, (R)-1-(6-(2-fluoro-3-methyl-1H-pyrrolo[2,3-b]pyridin-5-yl)-8-(morpholin-3-yl)-3,4-tetrahydroisoquinolin-2(1H)-yl)-2-hydroxy-2-methylpropan-1-one]
14 | 6.87 | CCc1c(Cl)[nH]c2ncc(-c3cc4c(c([C@@H]5COCCN5)c3)CN(C(=O)N3CC5CCC(C3)O5)CC4)cc12 [Compound Z514, (8-oxo-3-azabicyclo[3.2.1]octane-3-yl)(6-(2-chloro-3-ethyl-1H-pyrrolo[2,3-b]pyridin-5-yl)-8-((R)-morpholin-3-yl)-3,4-dihydroisoquinolin-2(1H)-yl)methanone]
15 | 6.76 | N#Cc1c[nH]c2ncc(-c3cc4c(c([C@@H]5COCCN5)c3)CN(C(=O)N3CC5CCC(C3)O5)CC4)cc12 [Compound Z515, 5-(2-(8-oxa-3-azabicyclo[3.2.1]octane-3-carbonyl)-8-((R)-morpholin-3-yl)-1,2,3,4-tetrahydroisoquinolin-6-yl)-1H-pyrrolo[2,3-b]pyridine-3-carbonitrile]
16 | 6.79 | Cc1c[nH]c2ncc(-c3cc4c(c([C@@H]5COCCN5)c3)CN(C(=O)N3CC5CC(C3)O5)CC4)cc12 [Compound Z516, (6-oxa-3-azabicyclo[3.1.1]heptan-3-yl)-(6-(3-methyl-1H-pyrrolo[2,3-b]pyridin-5-yl)-8((R)-morpholin-3-yl)-3,4-dihydroisoquinolin-2(1H)-yl)methanone]
17 | 6.71 | Cc1c[nH]c2ncc(-c3cc4c(c([C@@H]5COCCN5)c3)CN(C(=O)N3C[C@@H](C)O[C@@H](C)C3)CC4)cc12 [Compound Z519, ((2R,6S)-2,6-dimethylmorpholine)(6-(3-methyl-1H-pyrrolo[2,3-b]pyridin-5-yl)-8-((R)-morpholin-3-yl)-3,4-dihydroisoquinolin-2-1H-yl)methanone]
18 | 6.96 | O=C(N1CCc2cc(-c3cnc4[nH]cc(F)c4n3)cc([C@@H]3COCCN3)c2C1)N1CC2CCC(C1)O2 [Compound Z522, (8-oxa-3-azabicyclo[3.2.1]octan-3-yl)(6-(7-fluoro-5H-pyrrolo[2,3-b]pyrazin-2-yl)-8-((R)-morpholin-3-yl)-3,4-dihydroisoquinolin-2(1H)-yl)methanone]
19 | 6.79 | O=C(N1CCOCC1)N1CCc2cc(-c3cnc4[nH]cc(Cl)c4n3)cc([C@@H]3COCCN3)c2C1 [Compound Z527, (R)-(6-(7-chloro-5H-pyrrolo[2,3-b]pyrazin-2-yl)-8-(morpholin-3-yl)-3,4-dihydroisoquinolin-2(1H)-yl)(morpholino)methanone]
20 | 6.41 | Cc1cc(C(=O)N2CCc3cc(-c4cnc5[nH]cc(Cl)c5c4)cc([C@@H]4COCCN4)c3C2)nc(C)n1 [Compound Z531, (R)-(6-(3-chloro-1H-pyrrolo[2,3-b]pyridin-5-yl)-8-(morpholin-3-yl)-3,4-dihydroisoquinolin-2(1H)-yl)(2,6-dimethylpyrimidin-4-yl)methanone]
21 | 6.41 | Cc1ncc(C(=O)N2CCc3cc(-c4cnc5[nH]cc(Cl)c5c4)cc([C@@H]4COCCN4)c3C2)cn1 [Compound Z532, (R)-(6-(3-50 chloro-1H-pyrrolo[2,3-b]pyridin-5-yl)-8-(morpholin-3-yl)-3,4-dihydroisoquinolin-2(1H)-yl)(2-methylpyrimidin-5-yl)methanone]
22 | 6.64 | CCc1c[nH]c2ncc(-c3cc4c(c([C@@H]5COCCN5)c3)CN(C(=O)c3cnc(C)nc3)CC4)nc12 [Compound Z533, (R)-(6-(7-ethyl-5H-pyrrolo[2,3-b]pyrazin-2-yl)-8-(morpholin-3-yl)-3,4-dihydroisoquinolin-2(1H)-yl)(2-methylpyrimidin-5-yl)methanone]
23 | 5.98 | Cc1c[nH]c2ncc(-c3cc4c(c([C@@H]5COCCN5)c3)CN(CC3(O)CCOCC3)CC4)cc12 [Compound Z538, (R)-4-((6-(3-methyl-1H-pyrrolo[2,3-b]pyridin-5-yl)-8-(morpholin-3-yl)-3,4-dihydroisoquinolin-2(1H)-yl)methyl)tetrahydro-2H-pyran-4-ol]
24 | 6.28 | CCc1c[nH]c2ncc(-c3cc4c(c([C@@H]5COCCN5)c3)CN(C(=O)C(C)(C)O)CC4)nc12 [Compound Z540, (R)-1-(6-(7-ethyl-5H-pyrrolo[2,3-b]pyrazin-2-yl)-8-(morpholin-3-yl)-3,4-dihydroisoquinolin-2(1H)-yl)-2-hydroxy-2-methylpropan-1-one]
25 | 6.63 | O=C(C1CCOCC1)N1CCc2cc(-c3cnc4[nH]cc(Cl)c4c3)cc([C@@H]3COCCN3)c2C1 [Compound Z543, (R)-[6-(3-chloro-1H-pyrrolo[2,3-b]pyridin-5-yl)-8-(morpholin-3-yl)-3,4-dihydroisoquinolin-2(1H)-yl](tetrahydro-2H-pyran-4-yl)methanone]
26 | 6.25 | Cc1cc(-c2c[nH]c3ncc(-c4cc5c(c([C@@H]6COCCN6)c4)CN(C(=O)C(C)(C)O)CC5)cc23)c(C)cn1 [Compound Z545, (R)-1-(6-(3-(2,5-dimethylpyridin-4-yl)-1H-pyrrolo[2,3-b]pyridin-5-yl)-8-(morpholin-3-yl)-3,4-dihydroisoquinolin-2(1H)-yl)-2-hydroxy-2-methylpropan-1-one]
27 | 6.93 | O=C(N1CCc2cc(-c3cnc4[nH]cc(Cl)c4n3)cc([C@@H]3COCCN3)c2C1)N1CC2CCC1CO2 (stereo partly drawn) [Compound Z550, (2-oxa-5-azabicyclo[2.2.2]octan-5-yl)(6-(7-chloro-5H-pyrrolo[2,3-b]pyrazin-2-yl)-8-((R)-morpholin-3-yl)-3,4-dihydroisoquinolin-2(1H)-yl)methanone]
28 | 6.30 | Cc1c[nH]c2ncc(-c3cc4c(c([C@@H]5COCCN5)c3)CN(C(=O)N3CC5CCC(C3)C5O)CC4)cc12 (stereo partly drawn) [Compound Z551, (8-hydroxy-3-azabicyclo[3.2.1]octan-3-yl)(6-(3-methyl-1H-pyrrolo[2,3-b]pyridin-5-yl)-8-((R)-morpholin-3-yl)-3,4-dihydroisoquinolin-2(1H)-yl)methanone]
